Assay results taken from PMC5895059, “Scaffold hopping from (5-hydroxymethyl) isophthalates to multisubstituted pyrimidines diminishes binding affinity to the C1 domain of protein kinase C” (PLoS ONE, 2018).
Where “and” joins values, the source holds several entries; their conditions need not be identical. Identical values can stand only once.

Molecular target: PKCα (Homo sapiens, UniProt P17252)
Assay: [3H]PDBu displacement, 96-well plate filtration binding assay
Settings: for Displacement assay raw data (CCPM): single replicate wells; for Residual [^3H]PDBu binding to PKCα (% of control): 20 μM compound concentration, mean + SEM, n = 2–8

Structure (SMILES) | Displacement assay raw data (CCPM) (0,2 µM test substance) | Displacement assay raw data (CCPM) (1 µM test substance) | Displacement assay raw data (CCPM) (4 µM test substance) | Displacement assay raw data (CCPM) (10 µM test substance) | Residual [^3H]PDBu binding to PKCα (% of control) | Displacement assay raw data (CCPM) (20 µM test substance) | Displacement assay raw data (CCPM) (30 µM test substance)
CCCCCCCCOC(=O)c1nc(CO)nc(OCCCCCCCC)c1C [Compound 2c, Octyl 2-(hydroxymethyl)-5-methyl-6-(octyloxy)pyrimidine-4-carboxylate] | 12223 CCPM and 10832 CCPM and 10701 CCPM and 18273 CCPM and 16005 CCPM and 17696 CCPM | 12118 CCPM and 12391 CCPM and 11284 CCPM and 18079 CCPM and 16200 CCPM and 17048 CCPM | 10666 CCPM and 10448 CCPM and 9501 CCPM and 18957 CCPM and 15769 CCPM and 16408 CCPM | 10483 CCPM and 10217 CCPM and 10554 CCPM and 15009 CCPM and 15224 CCPM and 15278 CCPM | 93.5 ± 6.5 % of control | 10634 CCPM and 9873 CCPM and 9750 CCPM and 16572 CCPM and 15241 CCPM and 16254 CCPM | 11684 CCPM and 11210 CCPM and 10063 CCPM and 15855 CCPM and 15398 CCPM and 15526 CCPM
CCCC(CCC)COC(=O)c1nc(CO)nc(OCC(CCC)CCC)c1C [Compound 2d, 2-propylpentyl 2-(hydroxymethyl)-5-methyl-6-[(2-propylpentyl)oxy]pyrimidine-4-carboxylate] | 9740 CCPM and 9459 CCPM and 9651 CCPM and 5569 CCPM and 5686 CCPM and 5559 CCPM | 7644 CCPM and 9362 CCPM and 9109 CCPM and 5694 CCPM and 5798 CCPM and 6238 CCPM | 7518 CCPM and 9016 CCPM and 8738 CCPM and 4914 CCPM and 5158 CCPM and 5369 CCPM | 7586 CCPM and 7877 CCPM and 7985 CCPM and 4832 CCPM and 5595 CCPM and 4913 CCPM | 89.7 ± 7.1 % of control | 7408 CCPM and 8501 CCPM and 8368 CCPM and 4542 CCPM and 5847 CCPM and 5492 CCPM | 8520 CCPM and 7381 CCPM and 8758 CCPM and 5782 CCPM and 4556 CCPM and 4977 CCPM
CCCCC(CC)OC(=O)c1nc(CO)nc(OC(CC)CCCC)c1C (stereo not shown) [Compound 2e, Heptan-3-yl 6-(heptan-3-yloxy)-2-(hydroxymethyl)-5-methylpyrimidine-4-carboxylate] | 13386 CCPM and 12773 CCPM and 11586 CCPM and 9937 CCPM and 11273 CCPM and 11368 CCPM | 12486 CCPM and 13520 CCPM and 13561 CCPM and 10438 CCPM and 10771 CCPM and 10331 CCPM | 13244 CCPM and 12192 CCPM and 13129 CCPM and 11362 CCPM and 12373 CCPM and 12221 CCPM | 12416 CCPM and 12269 CCPM and 12041 CCPM and 10898 CCPM and 11193 CCPM and 10978 CCPM | 91.4 ± 2.3 % of control | 11475 CCPM and 10474 CCPM and 10581 CCPM and 9805 CCPM and 9920 CCPM and 10092 CCPM | 11584 CCPM and 10772 CCPM and 11119 CCPM and 8897 CCPM and 9568 CCPM and 9434 CCPM
Cc1c(OCc2cccc(C(F)(F)F)c2)nc(CO)nc1C(=O)OCc1cccc(C(F)(F)F)c1 [Compound 2f, 3-(trifluoromethyl)benzyl 2-(hydroxymethyl)-5-methyl-6-[[3-(trifluoromethyl)benzyl]oxy]pyrimidine-4-carboxylate] | 5892 CCPM and 5535 CCPM and 6214 CCPM and 6493 CCPM and 5681 CCPM and 5606 CCPM | 5789 CCPM and 5065 CCPM and 5775 CCPM and 6129 CCPM and 5689 CCPM | 5908 CCPM and 5351 CCPM and 5505 CCPM and 4754 CCPM and 5387 CCPM and 5468 CCPM | 5951 CCPM and 5634 CCPM and 5541 CCPM and 5247 CCPM and 5397 CCPM and 4899 CCPM | 90.5 ± 6.0 % of control | 5509 CCPM and 4316 CCPM and 5047 CCPM and 4822 CCPM and 4931 CCPM and 4834 CCPM | 5249 CCPM and 4747 CCPM and 5046 CCPM and 4792 CCPM and 4631 CCPM and 4673 CCPM
COC(=O)c1nc(CO)nc(OCc2cccc(C(F)(F)F)c2)c1C [Compound 2g, Methyl 2-(hydroxymethyl)-5-methyl-6-[[3-(trifluoromethyl)benzyl]oxy]pyrimidine-4-carboxylate] | 5444 CCPM and 5572 CCPM and 6419 CCPM and 5626 CCPM and 5372 CCPM and 5082 CCPM | 5331 CCPM and 5641 CCPM and 6328 CCPM and 5502 CCPM and 5786 CCPM and 5467 CCPM | 5858 CCPM and 5969 CCPM and 5764 CCPM and 5341 CCPM and 5546 CCPM and 5465 CCPM | 6071 CCPM and 6111 CCPM and 6173 CCPM and 5469 CCPM and 6077 CCPM and 5316 CCPM | 106.7 ± 5.0 % of control | 5096 CCPM and 6099 CCPM and 5970 CCPM and 5477 CCPM and 5384 CCPM and 5474 CCPM | 5416 CCPM and 5047 CCPM and 5574 CCPM and 5225 CCPM and 5482 CCPM and 5411 CCPM
CCCCC(CC)OC(=O)c1nc(CO)nc(OCc2cccc(C(F)(F)F)c2)c1C (stereo not shown) [Compound 2h, Heptan-3-yl 2-(hydroxymethyl)-5-methyl-6-[[3-(trifluoromethyl)benzyl]oxy]pyrimidine-4-carboxylate] | 5892 CCPM and 5535 CCPM and 6214 CCPM and 5732 CCPM and 5572 CCPM and 5002 CCPM | 5789 CCPM and 5065 CCPM and 5775 CCPM and 5836 CCPM and 5313 CCPM and 4792 CCPM | 5908 CCPM and 5351 CCPM and 5505 CCPM and 5457 CCPM and 5305 CCPM and 4736 CCPM | 5951 CCPM and 5634 CCPM and 5541 CCPM and 4751 CCPM and 4877 CCPM and 4485 CCPM | 86.8 ± 7.8 % of control | 5509 CCPM and 4316 CCPM and 5047 CCPM and 4061 CCPM and 4136 CCPM and 4187 CCPM | 5249 CCPM and 4747 CCPM and 5046 CCPM and 3715 CCPM and 4141 CCPM and 3683 CCPM
CCCCCCCOc1nc(CO)nc(C(=O)OC(CC)CCCC)c1C (stereo not shown) [Compound 2i, Heptan-3-yl 6-(heptyloxy)-2-(hydroxymethyl)-5-methylpyrimidine-4-carboxylate] | 4873 CCPM and 4870 CCPM and 5222 CCPM and 7916 CCPM and 8966 CCPM and 8933 CCPM | 5191 CCPM and 5217 CCPM and 5062 CCPM and 8605 CCPM and 8987 CCPM and 9227 CCPM | 5070 CCPM and 5217 CCPM and 5699 CCPM and 8553 CCPM and 8476 CCPM and 8686 CCPM | 4806 CCPM and 5282 CCPM and 4681 CCPM and 7955 CCPM and 8861 CCPM and 7525 CCPM | 87.2 ± 1.7 % of control | 4663 CCPM and 4781 CCPM and 4927 CCPM and 7593 CCPM and 7766 CCPM and 7574 CCPM | 4959 CCPM and 5003 CCPM and 5038 CCPM and 7682 CCPM and 7603 CCPM and 7191 CCPM
